{"source": "paper PMC11839852", "about": "“Preclinical comparison of (radio)lanthanides using mass spectrometry and nuclear imaging techniques: biodistribution of lanthanide-based tumor-targeting agents and lanthanides in ionic form” (European Journal of Nuclear Medicine and Molecular Imaging, 2024)", "key": {"AR42J tumor cells": {"test_system": "AR42J tumor cells", "test": "In vitro cell uptake of lanthanide chloride salts", "assay_type": "cell-based, rat", "protocol": "(§1) A mixture of equal molar amounts of the lanthanide chloride salts (100 nM stock solutions of ^natLuCl3, ^natTbCl3, ^natGdCl3, and ^natEuCl3, diluted in saline with an adjusted pH value to 3.5‒4.0) was prepared to obtain a final concentration of 10 pmol/mL (2.5 pmol/mL per lanthanide salt) and tested with AR42J, PC-3 PIP and KB tumor cells according to the same protocol as described for the Ln-labeled biomolecules (Supplementary Material). Analogous in vitro cell uptake studies were also performed with lanthanide metal complexes of diethylenetriaminepentaacetic acid (DTPA, Sigma Aldrich Chemie, Steinheim, Germany) to obtain a final concentration of 10 pmol/mL (2.5 pmol/mL per lanthanide complex) (Supplementary Material).\n(§2) Cell uptake studies were performed in triplicate in 3‒6 independent experiments and the results presented as the average ± standard deviation (SD). Data were normalized to the values measured for the ^175Lu-labeled tumor targeting agent or [^175Lu]LuCl3, which were set as 100% and zero was defined as 0%. Statistical significance of the normalized data was assessed for the comparison of the values obtained for terbium, gadolinium and europium analogues with those obtained for the lutetium counterparts by applying one-way ANOVA with the Dunnett’s post-test using GraphPad Prism software (version 8). A p-value of < 0.05 was considered statistically significant.\n(§3) Methods: The same experimental setting as described for Ln-labeled biomolecules was applied to perform uptake and internalization studies with the lanthanide salts (LnCl3; Ln = ^natLu, ^natTb, ^natGd and ^natEu). The applied solution was a mixture of the four lanthanide salts yielding a final concentration of 0.4 µM. Of these mixtures, 25 μL were added to the corresponding well with tumor cells. The cells were incubated for 1 h and 4 h, respectively, at 37 °C and 5% CO2. After incubation, the tumor cells were treated as described for the Ln-labeled biomolecules and processed for the measurement with ICP-MS."}, "KB tumor cells": {"test_system": "KB tumor cells", "test": "In vitro cell uptake of lanthanide chloride salts", "assay_type": "cell-based, human", "details": "1 h incubation", "protocol": "as §1, §2, §3"}, "PC-3 PIP tumor cells": {"test_system": "PC-3 PIP tumor cells", "test": "In vitro cell uptake of lanthanide chloride salts", "assay_type": "cell-based, human", "protocol": "as §1, §2, §3"}, "[1]": {"test_system": "non-tumor-bearing immunocompetent FVB mice", "test": "Biodistribution of lanthanide chloride salts LnCl3 (multiplexed ICP-MS)", "assay_type": "in vivo", "details": "for Tissue uptake: Blood / Tissue uptake: Bone / Tissue uptake: Brain / Tissue uptake: Heart / Tissue uptake: Intestines / Tissue uptake: Kidneys / Tissue uptake: Liver / Tissue uptake: Lung / Tissue uptake: Muscle / Tissue uptake: Pancreas / Tissue uptake: Salivary glands / Tissue uptake: Spleen / Tissue uptake: Stomach: non-tumor-bearing mice"}, "[2]": {"test_system": "non-tumor-bearing immunocompetent FVB mice", "test": "Dual-isotope SPECT/CT imaging of [177Lu]LuCl3 and [161Tb]TbCl3", "assay_type": "in vivo", "details": "radiolanthanides in chloride form", "protocol": "Dual-isotope SPECT studies with mice were performed as previously reported. Tumor-bearing nude mice (n = 2‒3 for each type of radioconjugate) were injected with 20 MBq (1 nmol) of a mixture of ^177Lu- and ^161Tb-labeled tumor-targeting agents (each 10 MBq, 0.5 nmol) diluted in saline containing 0.05% BSA. Non-tumor-bearing immunocompetent FVB mice (n = 2) were injected with 20 MBq of a mixture of [^177Lu]LuCl3 (10 MBq, 13.8 pmol) and [^161Tb]TbCl3 (10 MBq, 14.3 pmol) diluted with saline containing 0.05% BSA with a final pH value of 4.5. Additional mice (n = 2) were injected with colloids of lutetium-177 and terbium-161 obtained by diluting the chloride salts with PBS of pH 7.4 (Supplementary Material). SPECT/CT images were acquired 1 h, 4 h and 24 h after injection of the activity solutions using a dedicated small-animal SPECT/CT scanner (NanoSPECT/CT, Mediso Medical Imaging Systems, Budapest, Hungary) and the Nucline software (version 1.02, Mediso Ltd., Budapest, Hungary). Counts stemming from the γ-lines of lutetium-177 (112.9 keV ± 10% and 208.4 ± 10%) and the γ-lines and x-rays of terbium-161 (47.7 keV ± 10% and 74.6 keV ± 10%) were simultaneously registered using the respective energy windows for each radionuclide. […]"}, "[3]": {"details": "24 h p.i., estimated ratios (organ <0.5% ID/g)"}, "[4]": {"details": "96 h p.i., estimated ratios (organ <0.5% ID/g)"}}, "note": "Marks after values point to notes of the source that are not given here.", "data": [{"smiles": "[Cl][Tb]([Cl])[Cl]", "note": "[[^159Tb]TbCl3]", "values": [{"measurement": "Lanthanide uptake compared with [175Lu]LuCl3", "setting": "AR42J tumor cells", "value": "No significant difference"}, {"measurement": "Detected amount compared with lutetium", "setting": "KB tumor cells", "value": "significantly lower"}, {"measurement": "Lanthanide uptake compared with [175Lu]LuCl3", "setting": "PC-3 PIP tumor cells", "value": "No significant difference"}, {"measurement": "Organ ratios: Blood-to-bone", "setting": "[1]; 1 h p.i.", "value": "0.38 ± 0.08"}, {"measurement": "Organ ratios: Blood-to-liver", "setting": "[1]; 1 h p.i.", "value": "0.19 ± 0.05"}, {"measurement": "Organ ratios: Liver-to-bone", "setting": "[1]; 1 h p.i.", "value": "2.0 ± 0.3"}, {"measurement": "Tissue uptake: Blood", "setting": "[1]; 1 h p.i.", "value": "5.0 ± 0.9", "unit": "% ID/g"}, {"measurement": "Tissue uptake: Bone", "setting": "[1]; 1 h p.i.", "value": "13 ± 2", "unit": "% ID/g"}, {"measurement": "Tissue uptake: Brain", "setting": "[1]; 1 h p.i.", "value": "1.1 ± 0.8", "unit": "% ID/g"}, {"measurement": "Tissue uptake: Heart", "setting": "[1]; 1 h p.i.", "value": "4.8 ± 2.2", "unit": "% ID/g"}, {"measurement": "Tissue uptake: Intestines", "setting": "[1]; 1 h p.i.", "value": "2.6 ± 1.0", "unit": "% ID/g"}, {"measurement": "Tissue uptake: Kidneys", "setting": "[1]; 1 h p.i.", "value": "8.7 ± 2.5", "unit": "% ID/g"}, {"measurement": "Tissue uptake: Liver", "setting": "[1]; 1 h p.i.", "value": "27 ± 3", "unit": "% ID/g"}, {"measurement": "Tissue uptake: Lung", "setting": "[1]; 1 h p.i.", "value": "4.8 ± 1.2", "unit": "% ID/g"}, {"measurement": "Tissue uptake: Muscle", "setting": "[1]; 1 h p.i.", "value": "1.6 ± 0.9", "unit": "% ID/g"}, {"measurement": "Tissue uptake: Pancreas", "setting": "[1]; 1 h p.i.", "value": "2.2 ± 1.0", "unit": "% ID/g"}, {"measurement": "Tissue uptake: Salivary glands", "setting": "[1]; 1 h p.i.", "value": "2.4 ± 1.4", "unit": "% ID/g"}, {"measurement": "Tissue uptake: Spleen", "setting": "[1]; 1 h p.i.", "value": "6.1 ± 1.4", "unit": "% ID/g"}, {"measurement": "Tissue uptake: Stomach", "setting": "[1]; 1 h p.i.", "value": "6.0 ± 2.3", "unit": "% ID/g"}, {"measurement": "Organ ratios: Liver-to-bone", "setting": "[1]; 24 h p.i.", "value": "1.6 ± 0.5"}, {"measurement": "Organ ratios: Blood-to-bone", "setting": "[1]; [3]", "value": "<0.04^*"}, {"measurement": "Organ ratios: Blood-to-liver", "setting": "[1]; [3]", "value": "<0.02^*"}, {"measurement": "Tissue uptake: Blood", "setting": "[1]; 24 h p.i.", "value": "<0.5", "unit": "% ID/g"}, {"measurement": "Tissue uptake: Bone", "setting": "[1]; 24 h p.i.", "value": "15 ± 2", "unit": "% ID/g"}, {"measurement": "Tissue uptake: Brain", "setting": "[1]; 24 h p.i.", "value": "<0.5", "unit": "% ID/g"}, {"measurement": "Tissue uptake: Heart", "setting": "[1]; 24 h p.i.", "value": "0.76 ± 0.10", "unit": "% ID/g"}, {"measurement": "Tissue uptake: Intestines", "setting": "[1]; 24 h p.i.", "value": "0.54 ± 0.05", "unit": "% ID/g"}, {"measurement": "Tissue uptake: Kidneys", "setting": "[1]; 24 h p.i.", "value": "3.8 ± 0.8", "unit": "% ID/g"}, {"measurement": "Tissue uptake: Lung", "setting": "[1]; 24 h p.i.", "value": "1.0 ± 0.1", "unit": "% ID/g"}, {"measurement": "Tissue uptake: Muscle", "setting": "[1]; 24 h p.i.", "value": "<0.5", "unit": "% ID/g"}, {"measurement": "Tissue uptake: Pancreas", "setting": "[1]; 24 h p.i.", "value": "<0.5", "unit": "% ID/g"}, {"measurement": "Tissue uptake: Salivary glands", "setting": "[1]; 24 h p.i.", "value": "<0.5", "unit": "% ID/g"}, {"measurement": "Tissue uptake: Spleen", "setting": "[1]; 24 h p.i.", "value": "5.0 ± 1.1", "unit": "% ID/g"}, {"measurement": "Tissue uptake: Stomach", "setting": "[1]; 24 h p.i.", "value": "1.8 ± 0.4", "unit": "% ID/g"}, {"measurement": "Tissue uptake: Liver", "setting": "[1]; 24 h p.i., listed as natTb", "value": "~ 22 % ID/g"}, {"measurement": "Tissue uptake: Liver", "setting": "[1]; 24 h p.i., listed as terbium", "value": "22 ± 5", "unit": "% ID/g"}, {"measurement": "Organ ratios: Liver-to-bone", "setting": "[1]; 96 h p.i.", "value": "0.59 ± 0.18"}, {"measurement": "Organ ratios: Blood-to-bone", "setting": "[1]; [4]", "value": "<0.03^*"}, {"measurement": "Organ ratios: Blood-to-liver", "setting": "[1]; [4]", "value": "<0.05^*"}, {"measurement": "Tissue uptake: Blood", "setting": "[1]; 96 h p.i.", "value": "<0.5", "unit": "% ID/g"}, {"measurement": "Tissue uptake: Bone", "setting": "[1]; 96 h p.i.", "value": "19 ± 4", "unit": "% ID/g"}, {"measurement": "Tissue uptake: Brain", "setting": "[1]; 96 h p.i.", "value": "<0.5", "unit": "% ID/g"}, {"measurement": "Tissue uptake: Heart", "setting": "[1]; 96 h p.i.", "value": "0.73 ± 0.05", "unit": "% ID/g"}, {"measurement": "Tissue uptake: Intestines", "setting": "[1]; 96 h p.i.", "value": "0.52 ± 0.01", "unit": "% ID/g"}, {"measurement": "Tissue uptake: Kidneys", "setting": "[1]; 96 h p.i.", "value": "2.0 ± 0.1", "unit": "% ID/g"}, {"measurement": "Tissue uptake: Liver", "setting": "[1]; 96 h p.i.", "value": "11 ± 1", "unit": "% ID/g"}, {"measurement": "Tissue uptake: Lung", "setting": "[1]; 96 h p.i.", "value": "0.91 ± 0.10", "unit": "% ID/g"}, {"measurement": "Tissue uptake: Muscle", "setting": "[1]; 96 h p.i.", "value": "<0.5", "unit": "% ID/g"}, {"measurement": "Tissue uptake: Pancreas", "setting": "[1]; 96 h p.i.", "value": "<0.5", "unit": "% ID/g"}, {"measurement": "Tissue uptake: Salivary glands", "setting": "[1]; 96 h p.i.", "value": "<0.5", "unit": "% ID/g"}, {"measurement": "Tissue uptake: Spleen", "setting": "[1]; 96 h p.i.", "value": "3.1 ± 0.2", "unit": "% ID/g"}, {"measurement": "Tissue uptake: Stomach", "setting": "[1]; 96 h p.i.", "value": "2.2 ± 0.4", "unit": "% ID/g"}]}, {"smiles": "[Cl][Lu]([Cl])[Cl]", "note": "[[^177Lu]LuCl3]", "values": [{"measurement": "Bone uptake on SPECT images", "setting": "[2]", "value": "higher bone uptake"}]}]}
